# According to US20260285871A1, “Polymorphic Compounds and Uses Thereof” (TYRA BIOSCIENCES, INC., priority 2022, published 2026):
# Legend:
# Assay type in all cases: physicochemical
# [1] = Dynamic Vapor Sorption (DVS), moisture sorption/desorption; conditions: data not shown; for hygroscopicity suggested by vapor sorption data: DVS, 5% to 98% RH
# From the text: Dynamic Vapor Sorption (DVS): Moisture sorption/desorption data were collected on a DVS-intrinsic vapor sorption analyser (Surface Measurement Systems NA, Allentown, PA, USA) and operating with DVS-intrinsic control software (Version 1.0.5.1). Samples were not dried prior to analysis. Sorption and desorption data were collected over a range from 5% to 98% relative humidity (RH) via 10% RH increments under a nitrogen purge. The equilibrium criterion used for analysis was less than 0.005% weight change in 10 min with a maximum equilibration time of 3 h.
# [2] = Storage of solid form at RT, form followed by XRPD; conditions: storage at RT for about one month
# Description: X-Ray Powder Diffraction (XRPD) Data Collection Strategy: XRPD patterns of samples were recorded at room temperature on Aeris X-ray diffractometer (Almelo, The Netherlands) using Cu Kα radiation (λ=1.54 Å) at 40 kV, 15 mA passing through a Ni monochromater. Data were collected in a continuous scan mode with a step size of 0.02° and dwell time of 149 s over an angular range of 3° to 40° 2θ. The sample was loaded on a zero-background holder and gently pressed by a clean glass slide to ensure coplanarity of the sample surface with the surface of the holder. Obtained diffractograms were analysed and plotted with HighScore Plus software (V 5.0; Almelo, The Netherlands).
# [3] = Crystallization (polymorph) studies of compound 2: fast, reactive, slurry at 40° C., anti-solvent; solids analysed by XRPD; conditions: solvent 1,2 Prop Diol
# Description: Forms I-XIII of compound 2 were prepared according to one of the crystallization methods described below, e.g., fast crystallization; reactive crystallization; slurry crystallization or anti-solvent crystallization.
# Fast Crystallization Method: In a typical experiment, compound 2 (ca. 10 mg) was dissolved in minimum quantity the stated solvent while heating to 80° C. The resulted solution was allowed to cool down to room temperature. […]
# Reactive Crystallization: Benzene sulfonic acid (BSA) was dissolved in THF to prepare a stock solution and used for all the reactive crystallization experiments. Compound A free base (ca. 30 mg) was dissolved in minimum quantity the stated solvent while heating to 80° C. The resultant compound A free base solutions were allowed to cooldown to RT and added one equivalent of BSA stock solution. It was observed that most of the reactions yielded precipitate. […]
# Slurry Crystallization at 40° C. using Form I of compound 2: In a typical experiment, compound 2 (ca. 100 mg) was suspended in minimum quantity the stated solvent while heating to 40° C. The resulted slurries were allowed to stir at 40° C. for three days.
# Anti-Solvent Crystallization: In a typical experiment, compound 2 (ca. 100 mg) was dissolved in solubilizing solvent. To that solution 200 μL anti-solvent was added slowly. These iterations were continued until the precipitation observed or maximum solvent quantity of ~15 mL.
structure (smiles),measurement,setting,value
Br.C[C@@H](Oc1ccc2[nH]nc(-c3ccc(N4CC5(C4)CN(S(C)(=O)=O)C5)nc3)c2c1)c1c(Cl)cncc1Cl [Form II of Compound 12],hygroscopicity suggested by vapor sorption data,[1],moderately hygroscopic
C[C@@H](Oc1ccc2[nH]nc(-c3ccc(N4CC5(C4)CN(S(C)(=O)=O)C5)nc3)c2c1)c1c(Cl)cncc1Cl [Form II of Compound 5],hygroscopicity suggested by vapor sorption data,[1],moderately hygroscopic
C[C@@H](Oc1ccc2[nH]nc(-c3ccc(N4CC5(C4)CN(S(C)(=O)=O)C5)nc3)c2c1)c1c(Cl)cncc1Cl.O=P(O)(O)O [Form I of Compound 23],hygroscopicity suggested by vapor sorption data,[1],hygroscopic
C[C@@H](Oc1ccc2[nH]nc(-c3ccc(N4CC5(C4)CN(S(C)(=O)=O)C5)nc3)c2c1)c1c(Cl)cncc1Cl.O=C(O)CC(=O)O [Form I of Compound 26],hygroscopicity suggested by vapor sorption data,[1],moderately hygroscopic
same,weight loss observed in the DVS data,[1],about 2.1%
C[C@@H](Oc1ccc2[nH]nc(-c3ccc(N4CC5(C4)CN(S(C)(=O)=O)C5)nc3)c2c1)c1c(Cl)cncc1Cl.O=C(O)C(O)C(O)C(=O)O [Form I of Compound 25],hygroscopicity suggested by vapor sorption data,[1],moderately hygroscopic
C[C@@H](Oc1ccc2[nH]nc(-c3ccc(N4CC5(C4)CN(S(C)(=O)=O)C5)nc3)c2c1)c1c(Cl)cncc1Cl.O=S(=O)(O)c1ccccc1 [Form VIII of compound 2],solid form change during storage,[2],transformed to Form I of compound 2
C[C@@H](Oc1ccc2[nH]nc(-c3ccc(N4CC5(C4)CN(S(C)(=O)=O)C5)nc3)c2c1)c1c(Cl)cncc1Cl.O=C(O)/C=C/C(=O)O (stereo in doubt) [Form II of Compound 3],hygroscopicity suggested by vapor sorption data,[1],moderately hygroscopic
C[C@@H](Oc1ccc2[nH]nc(-c3ccc(N4CC5(C4)CN(S(C)(=O)=O)C5)nc3)c2c1)c1c(Cl)cncc1Cl [Form I of Compound 24],stability suggested by vapor sorption / DVS data,[1],instability
same,weight loss observed in the DVS data,[1],about 3.27%
C[C@@H](Oc1ccc2[nH]nc(-c3ccc(N4CC5(C4)CN(S(C)(=O)=O)C5)nc3)c2c1)c1c(Cl)cncc1Cl.Cl [Form II of Compound 1],hygroscopicity suggested by vapor sorption data,[1],moderately hygroscopic
C[C@@H](Oc1ccc2[nH]nc(-c3ccc(N4CC5(C4)CN(S(C)(=O)=O)C5)nc3)c2c1)c1c(Cl)cncc1Cl.O=S(=O)(O)c1ccccc1 [Compound 2],Anti-Solvent Crystallization Result,[3]; anti-solvent 4-Me-2-Pentanone,Form-X
same,Anti-Solvent Crystallization Result,[3]; anti-solvent DEE,Form-XI
same,Anti-Solvent Crystallization Result,[3]; anti-solvent EtOAc,Form-XI
same,Anti-Solvent Crystallization Result,[3]; anti-solvent T-butyl-methyl-ether,Form-XI
